Data on 10 compounds can be found in patent US9309284B2 (priority 2012, dated 2016).

Where only a bound is given, the exact number is not on record here.

The target in one data set is NV 3CL protease (Norovirus, UniProt Q83883). As to the kind of experiment: biochemical. More on the design: species or system norovirus strain Norwalk.
The test system of data set [1] is NV in replicon-harboring cells. Description: cell-based norovirus replicon system (NV replicon-harboring cells, HG23). The conditions noted are these: Norwalk virus, α-hydroxyphosphonates, mixtures of epimers. A general note: Replicon systems follow genome replication, usually without infectious particles.
The target of a further data set is EV71 3C protease (Human enterovirus 71, UniProt Q66478). As to the kind of experiment: biochemical.
The target in a further data set is SARS-CoV 3CL protease (Severe acute respiratory syndrome coronavirus, UniProt P0C6X7). Description: biochemical.
The subject of another data set is cells. As to the kind of experiment: cell cytotoxicity (microscopy and CytoTox 96 assay). It is filed as cell-based. From the text:
Cell Cytotoxicity. The nonspecific cytotoxic effects of each compound on cells were monitored by observation under a microscopy and CytoTox 96 Non-radioactive cytotoxicity assay (Promega, Madison, Wis.).

NV 3CL protease, sequence (Q83883 1101-1281 limits assumed): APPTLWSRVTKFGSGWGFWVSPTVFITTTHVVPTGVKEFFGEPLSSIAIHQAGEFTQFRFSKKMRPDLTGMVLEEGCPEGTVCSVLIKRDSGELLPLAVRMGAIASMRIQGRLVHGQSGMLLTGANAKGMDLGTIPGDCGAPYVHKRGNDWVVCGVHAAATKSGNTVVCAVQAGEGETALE
EV71 3C protease, sequence (Q66478 1549-1731 limits assumed): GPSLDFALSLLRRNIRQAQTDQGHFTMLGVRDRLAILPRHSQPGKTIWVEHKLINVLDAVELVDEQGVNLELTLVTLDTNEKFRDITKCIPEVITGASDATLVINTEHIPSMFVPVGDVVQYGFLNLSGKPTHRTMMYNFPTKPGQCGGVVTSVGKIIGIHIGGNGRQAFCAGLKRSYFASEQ

The term IC50 denotes the concentration needed to halve the response being measured. As a reminder, the EC50 is the concentration at which the effect is half-maximal. Consider `O=C(N[C@@H](CC1CCCCC1)C(=O)N[C@@H](CC1CCNC1=O)C(O)P(=O)(OCc1ccccc1)OCc1ccccc1)OCc1ccccc1` (mixture of isomers) [Compound 7h], for which the 50% inhibitory concentration (IC50) against NV 3CL protease was more than 50000 nM. Also, the concentration giving a half-maximal response (EC50) in data set [1] is 0.6 µM.
In the same order, the values of `CC(C)C[C@H](NC(=O)OCc1ccccc1)C(=O)N[C@@H](CC1CCNC1=O)C(O)P(=O)(O)O` (mixture of isomers) [Compound 7c] are more than 50000 nM and 0.8 µM.
In the same order, the values of `CCCCOP(=O)(OCCCC)C(O)[C@H](CC1CCNC1=O)NC(=O)[C@H](CC1CCCCC1)NC(=O)OCc1ccccc1` (mixture of isomers) [Compound 7f] are more than 50000 nM and 0.5 µM.
For `COP(=O)(OC)C(O)[C@H](CC1CCNC1=O)NC(=O)[C@H](CC(C)C)NC(=O)OCc1ccccc1` (mixture of isomers) [Compound 7b] the same measures were more than 50000 nM and 3.5 µM.
Consider `CCOP(=O)(OCC)C(O)[C@H](CC1CCNC1=O)NC(=O)[C@H](CC(C)C)NC(=O)OCc1ccccc1` (mixture of isomers) [Compound 7a], for which the IC50 at NV 3CL protease is more than 50000 nM. In data set [1], the concentration for a half-maximal effect (EC50) was 1.1 µM.
In the same order, the values of `O=C(N[C@@H](CC1CCCCC1)C(=O)N[C@@H](CC1CCNC1=O)C(O)P(=O)(OCC(F)(F)F)OCC(F)(F)F)OCc1ccccc1` (mixture of isomers) [Compound 7g] are more than 50000 nM and 0.25 µM.
For `COP(=O)(OC)C(O)[C@H](CC1CCNC1=O)NC(=O)[C@H](CC1CCCCC1)NC(=O)OCc1ccccc1` (mixture of isomers) [Compound 7e] the same measures were more than 50000 nM and 2.8 µM.
For `CC(C)C[C@@H]1NC(=O)[C@@H](NC(=O)OCc2ccccc2)Cc2cn(nn2)CCCNC(=O)CC[C@@H](C=O)NC1=O` [Compound 13, Benzyl(9-formyl-12-isobutyl-6,11,14-trioxo-1,5,10,13,18,19-hexaazabicyclo[15.2.1]icosa-17(20),18-dien-15-yl)carbamate], the IC50 on EV71 3C protease was 1800 nM; against SARS-CoV 3CL protease it was 15500 nM; against NV 3CL protease, 5100 nM.
At NV 3CL protease, `CCOP(=O)(OCC)C(O)[C@H](CC1CCNC1=O)NC(=O)[C@H](CC1CCCCC1)NC(=O)OCc1ccccc1` (mixture of isomers) [Compound 7d] gave an IC50 of more than 50000 nM. Also, the EC50 in data set [1] is 0.25 µM.
Regarding `O=CC(CC1CCNC1=O)NC(=O)C(CC1CCCCC1)N1C(=O)CCC(NC(=O)OCc2ccccc2)C1=O` (centres unmarked) [Compound 5, Benzyl(1-(3-cyclohexyl-1-oxo-1-((1-oxo-3-(2-oxopyrrolidin-3-yl)propan-2-yl)amino)propan-2-yl)-2,6-dioxopperidin-3-yl)carbamate], the “toxicity to cells (no toxicity up to)” value with cells was more than 150 µM.
